Reference: patent US20240109917A1 (ACTELION PHARMACEUTICALS LTD, priority 2020, published 2024)

Tests used:
[1] = biological target: His6-TEV-PDGFRβ (557-1016) (Homo sapiens (Human), UniProt P09619); experiment: PDGFRβ HTRF Assay; assay type: biochemical; conditions: read-out: PDGFR HTRF IC50
Method in brief: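 Human PDGFRβ (557-1016) pre-incubated with compound for 30 min at RT in pH 7.5 HEPES/MgCl2/EGTA/Brij-35/DTT buffer. Reaction started with ATP and TK-biotin peptide, run 3 h at RT, then quenched with EDTA-containing Eu-cryptate antibody/streptavidin-XL665. HTRF 665/620 nm ratio read after 60 min; percent inhibition relative to DMSO and 10 μM imatinib controls.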

[2] = biological target: VEGFR2, unphosphorylated (Homo sapiens (Human), UniProt P35968); experiment: VEGFR ADP GLO Assay; assay type: biochemical
Sequence of VEGFR2, unphosphorylated (P35968 20-1356): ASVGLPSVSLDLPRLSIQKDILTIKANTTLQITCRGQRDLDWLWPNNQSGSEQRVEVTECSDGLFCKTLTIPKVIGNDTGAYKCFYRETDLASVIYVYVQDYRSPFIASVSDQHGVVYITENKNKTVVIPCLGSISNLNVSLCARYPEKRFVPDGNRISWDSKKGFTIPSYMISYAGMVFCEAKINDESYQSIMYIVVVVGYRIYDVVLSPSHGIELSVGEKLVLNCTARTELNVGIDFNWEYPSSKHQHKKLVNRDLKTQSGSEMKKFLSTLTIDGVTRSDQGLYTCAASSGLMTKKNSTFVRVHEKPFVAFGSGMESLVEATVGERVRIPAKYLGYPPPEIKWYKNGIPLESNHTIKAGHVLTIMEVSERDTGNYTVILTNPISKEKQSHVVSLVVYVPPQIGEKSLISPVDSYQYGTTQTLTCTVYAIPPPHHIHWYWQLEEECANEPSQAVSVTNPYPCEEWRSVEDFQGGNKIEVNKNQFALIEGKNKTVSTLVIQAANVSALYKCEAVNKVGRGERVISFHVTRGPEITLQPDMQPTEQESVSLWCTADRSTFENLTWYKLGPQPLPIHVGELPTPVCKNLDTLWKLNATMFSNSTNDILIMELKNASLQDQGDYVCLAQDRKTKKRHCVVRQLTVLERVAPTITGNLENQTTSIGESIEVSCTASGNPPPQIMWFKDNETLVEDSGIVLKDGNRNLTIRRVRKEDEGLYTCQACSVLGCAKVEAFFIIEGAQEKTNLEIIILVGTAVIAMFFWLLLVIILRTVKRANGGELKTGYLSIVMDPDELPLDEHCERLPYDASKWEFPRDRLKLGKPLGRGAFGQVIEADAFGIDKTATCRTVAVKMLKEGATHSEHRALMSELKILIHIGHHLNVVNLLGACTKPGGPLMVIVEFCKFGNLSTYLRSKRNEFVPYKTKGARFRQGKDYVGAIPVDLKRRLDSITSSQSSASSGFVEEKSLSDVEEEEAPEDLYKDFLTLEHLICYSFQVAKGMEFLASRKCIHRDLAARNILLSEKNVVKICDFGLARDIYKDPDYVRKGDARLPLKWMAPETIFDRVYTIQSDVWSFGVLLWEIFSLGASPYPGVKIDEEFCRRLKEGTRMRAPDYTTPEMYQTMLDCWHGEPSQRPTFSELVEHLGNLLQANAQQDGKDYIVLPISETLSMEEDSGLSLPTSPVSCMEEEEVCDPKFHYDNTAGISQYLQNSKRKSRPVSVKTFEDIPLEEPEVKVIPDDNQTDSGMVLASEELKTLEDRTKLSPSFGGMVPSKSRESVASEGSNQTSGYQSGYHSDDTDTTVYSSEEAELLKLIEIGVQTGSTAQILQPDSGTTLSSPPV

Sequence of His6-TEV-PDGFRβ (557-1016) (P09619 557-1016): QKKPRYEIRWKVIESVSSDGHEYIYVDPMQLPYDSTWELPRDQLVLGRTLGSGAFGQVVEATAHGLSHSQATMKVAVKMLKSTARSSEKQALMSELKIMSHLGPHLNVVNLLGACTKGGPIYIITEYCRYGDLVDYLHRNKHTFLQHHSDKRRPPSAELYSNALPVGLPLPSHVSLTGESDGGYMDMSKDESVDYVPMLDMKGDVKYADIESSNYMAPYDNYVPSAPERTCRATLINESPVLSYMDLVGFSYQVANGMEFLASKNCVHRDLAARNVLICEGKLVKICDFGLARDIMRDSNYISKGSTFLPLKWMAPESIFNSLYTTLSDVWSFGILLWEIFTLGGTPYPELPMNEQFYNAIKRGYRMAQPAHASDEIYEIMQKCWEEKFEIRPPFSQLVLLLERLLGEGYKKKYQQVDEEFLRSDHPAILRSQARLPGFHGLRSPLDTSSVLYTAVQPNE

Row | SMILES | IC50 [1] | IC50 [2]
1 | Cc1ncc(NC(=O)CN(C)C2CCOCC2)cc1NC(=O)c1cnn2cc(-c3cnn(C4CCC4)c3)sc12 [Example 296, 2-(1-cyclobutyl-1H-pyrazol-4-yl)-N-(2-methyl-5-(2-(methyl(tetrahydro-2H-pyran-4-yl)amino)acetamido)pyridin-3-yl)pyrazolo[5,1-b]thiazole-7-carboxamide] | 0.3 nM | > 7500 nM
2 | COc1ncccc1-c1cn2ncc(C(=O)Nc3cc(NC(=O)CN4CCCC4)cnc3C)c2s1 [Example 313, 2-(2-methoxypyridin-3-yl)-N-(2-methyl-5-(2-(pyrrolidin-1-yl)acetamido)pyridin-3-yl)pyrazolo[5,1-b]thiazole-7-carboxamide] | 0.2 nM | > 7500 nM
3 | Cc1ncc(NC(=O)CN2CCCCC23COC3)cc1NC(=O)c1cnn2cc(-c3cnn(C)c3)sc12 [Example 25, N-(5-(2-(2-oxa-5-azaspiro[3.5]nonan-5-yl)acetamido)-2-methylpyridin-3-yl)-2-(1-methyl-1H-pyrazol-4-yl)pyrazolo[5,1-b]thiazole-7-carboxamide] | 0.7 nM | > 7500 nM
4 | Cc1ncc(NC(=O)CN(C)C2CCOCC2)cc1NC(=O)c1cnn2cc(-c3cnn(CS(C)(=O)=O)c3)sc12 [Example 298, N-(2-methyl-5-(2-(methyl(tetrahydro-2H-pyran-4-yl)amino)acetamido)pyridin-3-yl)-2-(1-((methylsulfonyl)methyl)-1H-pyrazol-4-yl)pyrazolo[5,1-b]thiazole-7-carboxamide] | 0.9 nM | > 7500 nM
5 | Cc1ncc(NC(=O)CN2CC(C)(C)C2)cc1NC(=O)c1cnn2cc(-c3cnn(CC4COC4)c3)sc12 [Example 263, N-(5-(2-(3,3-dimethylazetidin-1-yl)acetamido)-2-methylpyridin-3-yl)-2-(1-(oxetan-3-ylmethyl)-1H-pyrazol-4-yl)pyrazolo[5,1-b]thiazole-7-carboxamide] | 0.6 nM | > 7500 nM
6 | COc1ncccc1-c1cn2ncc(C(=O)Nc3cc(NC(=O)CN4CCOC(C)(C)C4)cnc3C)c2s1 [Example 319, N-(5-(2-(2,2-dimethylmorpholino)acetamido)-2-methylpyridin-3-yl)-2-(2-methoxypyridin-3-yl)pyrazolo[5,1-b]thiazole-7-carboxamide] | 0.3 nM | > 7500 nM
7 | Cc1ncc(NC(=O)[C@@H]2C[C@@H](C)CN2C)cc1NC(=O)c1cnn2cc(-c3cnn(C)c3)sc12 [Example 304, N-(5-((2S,4R)-1,4-dimethylpyrrolidine-2-carboxamido)-2-methylpyridin-3-yl)-2-(1-methyl-1H-pyrazol-4-yl)pyrazolo[5,1-b]thiazole-7-carboxamide] | 0.6 nM | > 7500 nM
8 | COCCn1cc(-c2cn3ncc(C(=O)Nc4cc(NC(=O)CN5CC(C)(C)C5)cnc4C)c3s2)cn1 [Example 261, N-(5-(2-(3,3-dimethylazetidin-1-yl)acetamido)-2-methylpyridin-3-yl)-2-(1-(2-methoxyethyl)-1H-pyrazol-4-yl)pyrazolo[5,1-b]thiazole-7-carboxamide] | 0.4 nM | > 7500 nM
9 | Cc1ncc(NC(=O)CN2CC(C)(C)C2)cc1NC(=O)c1cnn2cc(-c3cnn(C4CCNCC4)c3)sc12 [Example 293, N-(5-(2-(3,3-dimethylazetidin-1-yl)acetamido)-2-methylpyridin-3-yl)-2-(1-(piperidin-4-yl)-1H-pyrazol-4-yl)pyrazolo[5,1-b]thiazole-7-carboxamide] | 0.4 nM | > 7500 nM
10 | Cc1ncc(NC(=O)CC(C)N2CCCCC2)cc1NC(=O)c1cnn2cc(-c3cnn(C)c3)sc12 (centres unmarked) [Example 307, 2-(1-methyl-1H-pyrazol-4-yl)-N-(2-methyl-5-(3-(piperidin-1-yl)butanamido)pyridin-3-yl)pyrazolo[5,1-b]thiazole-7-carboxamide] | 9.7 nM | > 7500 nM
11 | Cc1ncc(NC(=O)C[C@@H]2CCCN2C(C)C)cc1NC(=O)c1cnn2cc(-c3cccnc3O)sc12 [Example 322, (S)-2-(2-hydroxypyridin-3-yl)-N-(5-(2-(1-isopropylpyrrolidin-2-yl)acetamido)-2-methylpyridin-3-yl)pyrazolo[5,1-b]thiazole-7-carboxamide] | 0.7 nM | > 7500 nM
12 | Cc1ncc(NC(=O)CN2CC(C)(C)C2)cc1NC(=O)c1cnn2cc(-c3cn[nH]c3)sc12 [Example 271, N-(5-(2-(3,3-dimethylazetidin-1-yl)acetamido)-2-methylpyridin-3-yl)-2-(1H-pyrazol-4-yl)pyrazolo[5,1-b]thiazole-7-carboxamide] | 0.2 nM | 5930 nM
13 | COc1ncccc1-c1cn2ncc(C(=O)Nc3cc(NC(=O)[C@@H]4C[C@H](C)CN4C)cnc3C)c2s1 [Example 317, N-(5-((2S,4S)-1,4-dimethylpyrrolidine-2-carboxamido)-2-methylpyridin-3-yl)-2-(2-methoxypyridin-3-yl)pyrazolo[5,1-b]thiazole-7-carboxamide] | 0.3 nM | > 7500 nM
14 | Cc1ncc(NC(=O)CN(C)C2CCOCC2)cc1NC(=O)c1cnn2cc(-c3cnn(C(C)C#N)c3)sc12 (centres unmarked) [Example 297, 2-(1-(1-cyanoethyl)-1H-pyrazol-4-yl)-N-(2-methyl-5-(2-(methyl(tetrahydro-2H-pyran-4-yl)amino)acetamido)pyridin-3-yl)pyrazolo[5,1-b]thiazole-7-carboxamide] | 0.7 nM | > 7500 nM
15 | Cc1ncc(NC(=O)CN2CC(C)(C)C2)cc1NC(=O)c1cnn2cc(-c3cnn(C)c3)sc12 [Example 22, N-(5-(2-(3,3-dimethylazetidin-1-yl)acetamido)-2-methylpyridin-3-yl)-2-(1-methyl-1H-pyrazol-4-yl)pyrazolo[5,1-b]thiazole-7-carboxamide] | 0.7 nM | > 7500 nM
16 | Cc1ncc(NC(=O)CN2CC(C)(C)C2)cc1NC(=O)c1cnn2cc(-c3cnn(CS(C)(=O)=O)c3)sc12 [Example 265, N-(5-(2-(3,3-dimethylazetidin-1-yl)acetamido)-2-methylpyridin-3-yl)-2-(1-((methylsulfonyl)methyl)-1H-pyrazol-4-yl)pyrazolo[5,1-b]thiazole-7-carboxamide] | 0.5 nM | > 7500 nM
17 | Cc1ncc(NC(=O)CN2CC(C)(C)C2)cc1NC(=O)c1cnn2cc(-c3cnn(CC(N)=O)c3)sc12 [Example 267, 2-(1-(2-amino-2-oxoethyl)-1H-pyrazol-4-yl)-N-(5-(2-(3,3-dimethylazetidin-1-yl)acetamido)-2-methylpyridin-3-yl)pyrazolo[5,1-b]thiazole-7-carboxamide] | 0.9 nM | > 7500 nM
18 | COCCn1cc(-c2cn3ncc(C(=O)Nc4cc(NC(=O)CN5CCCC5(C)C)cnc4C)c3s2)cn1 [Example 329, N-(5-(2-(2,2-dimethylpyrrolidin-1-yl)acetamido)-2-methylpyridin-3-yl)-2-(1-(2-methoxyethyl)-1H-pyrazol-4-yl)pyrazolo[5,1-b]thiazole-7-carboxamide] | 0.5 nM | > 7500 nM
19 | Cc1ncc(NC(=O)CN2CC(C)(C)C2)cc1NC(=O)c1cnn2cc(-c3cnn(CC(C)O)c3)sc12 (centres unmarked) [Example 281, N-(5-(2-(3,3-dimethylazetidin-1-yl)acetamido)-2-methylpyridin-3-yl)-2-(1-(2-hydroxypropyl)-1H-pyrazol-4-yl)pyrazolo[5,1-b]thiazole-7-carboxamide] | 0.4 nM | > 7500 nM
20 | Cc1ncc(NC(=O)CN2CC(C)(C)C2)cc1NC(=O)c1cnn2cc(-c3cnn(CC4CC4)c3)sc12 [Example 270, 2-(1-(cyclopropylmethyl)-1H-pyrazol-4-yl)-N-(5-(2-(3,3-dimethylazetidin-1-yl)acetamido)-2-methylpyridin-3-yl)pyrazolo[5,1-b]thiazole-7-carboxamide] | 0.4 nM | > 7500 nM
21 | COCCn1cc(-c2cn3ncc(C(=O)Nc4cc(NC(=O)CN5CCC[C@@H]5C)cnc4C)c3s2)cn1 [Example 325, (S)-2-(1-(2-methoxyethyl)-1H-pyrazol-4-yl)-N-(2-methyl-5-(2-(2-methylpyrrolidin-1-yl)acetamido)pyridin-3-yl)pyrazolo[5,1-b]thiazole-7-carboxamide] | 0.8 nM | > 7500 nM
22 | Cc1ncc(NC(=O)CN2CCCC3(COC3)C2)cc1NC(=O)c1cnn2cc(-c3cnn(C)c3)sc12 [Example 24, N-(5-(2-(2-oxa-6-azaspiro[3.5]nonan-6-yl)acetamido)-2-methylpyridin-3-yl)-2-(1-methyl-1H-pyrazol-4-yl)pyrazolo[5,1-b]thiazole-7-carboxamide] | 0.7 nM | > 7500 nM
23 | Cc1ncc(NC(=O)CN2CC(C)(C)C2)cc1NC(=O)c1cnn2cc(-c3cnn(CC(F)(F)F)c3)sc12 [Example 268, N-(5-(2-(3,3-dimethylazetidin-1-yl)acetamido)-2-methylpyridin-3-yl)-2-(1-(2,2,2-trifluoroethyl)-1H-pyrazol-4-yl)pyrazolo[5,1-b]thiazole-7-carboxamide] | 0.6 nM | > 7500 nM
24 | Cc1ncc(NC(=O)CN2CCC3(CCOC3)C2)cc1NC(=O)c1cnn2cc(-c3cnn(C)c3)sc12 (centres unmarked) [Example 19, N-(5-(2-(2-oxa-7-azaspiro[4.4]nonan-7-yl)acetamido)-2-methylpyridin-3-yl)-2-(1-methyl-1H-pyrazol-4-yl)pyrazolo[5,1-b]thiazole-7-carboxamide] | 0.7 nM | > 7500 nM
25 | COc1ncccc1-c1cn2ncc(C(=O)Nc3cc(NC(=O)OCCN4CCCC4(C)C)cnc3C)c2s1 [Example 254, 2-(2,2-dimethylpyrrolidin-1-yl)ethyl (5-(2-(2-methoxypyridin-3-yl)pyrazolo[5,1-b]thiazole-7-carboxamido)-6-methylpyridin-3-yl)carbamate] | 0.2 nM | > 7500 nM
